Values quoted from earlier work in paper PMC10145264, “Synthesis and Biological Properties of EGFR-Targeted Photosensitizer Based on Cationic Porphyrin” (Pharmaceutics, 2023).

Tests used:
[1] = set-up: method as in PMID 24063545; conditions: standard value
[2] = set-up: method as in doi:10.1016/j.chemphys.2006.07.040, doi:10.1007/BF03356111, doi:10.1016/j.jphotochemrev.2020.100401; conditions: standard value

Structure (SMILES): C1=Cc2nc1c(-c1ccccc1)c1ccc([n-]1)c(-c1ccccc1)c1nc(c(-c3ccccc3)c3ccc([n-]3)c2-c2ccccc2)C=C1.[Zn+2] [ZnTPP, zinc tetraphenylporphyrin]
- singlet oxygen quantum yield (ΦΔ) [1]: 0.74
- fluorescence quantum yield (ΦF) [2]: 0.033
